# Source: article PMC10415494, “Ga(III) pyridinecarboxylate complexes: potential analogues of the second generation of therapeutic Ga(III) complexes?” (Journal of Biological Inorganic Chemistry, 2023)
# Like-named read-outs stand apart in the source and are kept apart here.
# Assays:
# [1] = Method: The stock solution of HPic and H2Dpic was prepared by dissolving in demineralized water (c(ligand) = 0.02 M). The gallium(III) ion solution was prepared from anhydrous gallium(III) nitrate (c(Ga^3+) = 0.05 M) and was standardized by back titration of excess of EDTA with zinc(II). Decarbonated potassium hydroxide solution (approx. 0.2 M) was used as a titrant that was standardized by potassium hydrogen phthalate (c(KHP) = 0.1 M). Standard inert electrolyte of nitric acid was used in all titrations (c(HNO3) = 0.03 M, I(HNO3/KNO3) = 0.1 M). Potentiometric measurements were carried out using a TitroLine 7000 dosage system with a BlueLine combination electrode (SI Analytics) in a glass vessel (5 mL) thermostated at 25 ± 0.1 °C at an ionic strength I(KNO3) = 0.1 M. Inert atmosphere was ensured by a constant flow of a nitrogen gas. Precise calibration of the electrode was carried out by the titration of 0.03 M HNO3 with 0.2 M KOH in the range –log[H^+] = 1.8–12.0, with the pH-meter yielding E values. The relation between E and –log[H^+] is expressed by Eq. (1) where the term E^0 contains the standard potentials of the electrode and the contribution of inert ions to the liquid-junction potential. The value S corresponds to the Nernstian slope, the value of which should be close to the theoretical value, and j1[H^+] and j2[OH^–] = j2Kw/[H^+] are contributions of the H^+ and OH^– ions, respectively, to the liquid-junction potential. The pKw value was 13.78 in Eq. (1).1 E=E^0-S-logH^++j1H^++j2Kw/H^+
# The parameters j1 and j2 cause deviation from linear dependence between E and –log[H^+] only in strongly acidic and strongly alkaline solutions. The picolinic and dipicolinic acid protonation constants were determined with ligand concentration 0.004 M. The stability constants in the Ga-HPic and Ga-H2Dpic binary system were determined by the ligand concentrations 0.004 and the Ga^3+ concentration was 0.004, 0.002 and 0.001 M in dependence on the ligand to metal ratio.
# The protonation constants β110, β210 are the concentration constants and are defined by β110 = [HL]/ [H][L], β210 = [H2L]/ [H]^2[L] (pK2 = logβ110, pK1 = logβ210- logβ110); the stability constants are defined by βrqp = [HrLqMp]/[H]^r[L]^q[M]^p. The equilibrium constants were obtained by fitting the titration data with OPIUM [23]. The following hydrolysis constants were used for the calculations: βpr = [Mp(OH)r^3−r][H]^r/[M]^p; log β11 = − 2.74; log β12 = − 7.0; log β13 = − 11.96; log β14 = − 15.52 [24].
# [2] = system: A2058 (human metastatic melanoma); assay: MTS antiproliferative assay
# Method: (§1) Cell culture the cell lines A2058 (human metastatic melanoma), BLM (human metastatic melanoma), HCT116 (human colorectal carcinoma), HeLa (human cervical adenocarcinoma), Jurkat (human leukaemic T cell lymphoma). […] Cells were maintained in standard conditions with an atmosphere containing 5% CO2 at 37 °C.
# (§2) The antiproliferative activity of Ga(III) complexes GaPic, GaDpic, GaChel, GaCldpic, free ligands (HPic, H2Dpic, H2Chel, H2Cldpic) and cisplatin (cisPt) were evaluated by colorimetric microculture MTS (3-(4,5-dimethylthiazol-2-yl)-5-(3-carboxymethoxyphenyl)-2-(4-sulfophenyl)-2H tetrazolium) assay (Promega, Madison, WI, USA). Cancer and non-cancer cells were seeded at density 5 × 10^3 cells/well in 96-well polystyrene microplates. Twenty-four hours after cell seeding, different concentrations (1.0—100.0 µM) of the compounds were tested. After 72 h of incubation, 10 µL of MTS was added to each well. After an additional 2 h, cell proliferation was evaluated by measuring of absorbance at wavelength 490 nm using the automated Cytation™ 3 Cell Imaging Multi-Mode Reader (Biotek, Winooski, VT, USA). The absorbance of control wells was taken as 100%, and the results were expressed as a percent of untreated control. IC50 values were calculated from MTS analyses.
# [3] = system: HCT116 (human colorectal carcinoma); assay: MTS antiproliferative assay
# Method: as §1, §2
# [4] = system: HeLa (human cervical adenocarcinoma); assay: MTS antiproliferative assay
# Method: as §1, §2
# [5] = system: Jurkat (human leukaemic T cell lymphoma); assay: MTS antiproliferative assay
# Method: as §1, §2
# [6] = system: MDA-MB-231 (human mammary gland adenocarcinoma); assay: MTS antiproliferative assay
# Method: as §1, §2
# [7] = system: PaTu 8902 (human pancreatic adenocarcinoma); assay: MTS antiproliferative assay
# Method: as §1, §2
# [8] = system: human dermal fibroblasts (HDF); assay: MTS antiproliferative assay (non-cancer cells)
# Method: as §1, §2
# [9] = system: Escherichia coli (E. coli) CCM 3988; assay: Antimicrobial activity, macrodilution method (growth by A590); type: cell-based
# Method: (§3) The antimicrobial activities of gallium(III) complexes GaPic, GaDpic, GaChel, GaCldpic, free ligands (HPic, H2Dpic, H2Chel, H2Cldpic) and positive controls (cefoxitin (C), ampicillin (A) and piperacillin (P)) were evaluated by macrodilution method using G^+ bacteria (Firmicutes) Staphylococcus aureus (S. aureus) CCM 3953 (Czech Collection of Microorganisms), G^− bacteria (γ-proteobacteria) Escherichia coli (E. coli) CCM 3988, Pseudomonas aeruginosa (P. aeruginosa) CCM 1959 (Czech Collection of Microorganisms) and the yeast Candida parapsilosis (C. parapsilosis) ATCC 22019 (American type culture collection). Cultures of bacteria (in Mueller–Hinton broth, MHB) and yeasts (in Sabouraud’s growth medium, SB) were incubated under shaking (250 rpm) at 37 °C. The growth of bacteria and yeasts was evaluated by measuring the absorbance of the growing cultures (A590) until the cultures reached the stationary growth phase. The effects of gallium(III) complexes on the growth of filamentous fungi Rhizopus oryzae (R. oryzae) CCM F-8284, Alternaria alternata (A. alternata) CCM F-128 and Microsporum gypseum (M. gypseum) CCM F-8342 (Czech Collection of Microorganisms) were observed by macrodilution method on solidified potato-dextrose growth medium (PDA). During culturing, the diameters of growing fungal colonies were measured at regular intervals. Briefly, the antimicrobial activity (bacteria and yeasts) gallium(III) complexes/ ligands were added to the microbial culture at the beginning of the cultivation-to the lag phase. Pure gallium(III) complexes/ligands were dissolved in DMSO. The final concentration of DMSO never exceeded 1.0 vol. % neither in control nor treated samples. Concentration of gallium(III) complexes used in experimental work for evaluation of antimicrobial activity was used in the range of 0.05–2 mM, for the free ligands in the range of 0.5–2.0 mM in all experiments. […] The IC50 values were evaluated from toxicity curves. All the obtained results of antimicrobial activity were compared to the activity of Ga(NO3)3.
# [10] = system: Pseudomonas aeruginosa (P. aeruginosa) CCM 1959; assay: as above; type: cell-based
# Method: as §3
# [11] = system: Staphylococcus aureus (S. aureus) CCM 3953; assay: as above; type: cell-based
# Method: as §3
# [12] = system: Candida parapsilosis (C. parapsilosis) ATCC 22019; assay: Antimicrobial activity, macrodilution method (yeast, growth by A590); type: cell-based; details: Yeast; Sabouraud's growth medium, 37 °C; read-out: IC50 C. parapsilosis
# Method: as §3
# [13] = system: Alternaria alternata (A. alternata) CCM F-128; assay: Growth of filamentous fungi, macrodilution method on solidified PDA (colony diameter); type: cell-based; details: Filamentous fungi; solidified potato-dextrose growth medium; read-out: IC50 A. alternata
# Method: as §3
# [14] = system: Microsporum gypseum (M. gypseum) CCM F-8342; assay: as above; type: cell-based; details: Filamentous fungi; solidified potato-dextrose growth medium; read-out: IC50 M. gypseum
# Method: as §3
# [15] = system: Rhizopus oryzae (R. oryzae) CCM F-8284; assay: as above; type: cell-based; details: solidified potato-dextrose growth medium; read-out: IC50 R. oryzae
# Method: as §3
# [16] = Complex stability in biological testing medium by time-dependent 1H NMR; type: physicochemical; details: 300 K, over 96 h
# Method: Nuclear magnetic resonance (NMR) data were collected on a Varian VNMRS 600 spectrometer operating at 599.87 MHz for ^1H. The concentration of all samples was approximately 3 mg/0.6 mL of 1% DMSO-d6/D2O. For comparison, the spectra of pure acids were also measured, while the pH of the solution of acids was adjusted to the same value as the solution of the complexes. The chemical shifts were referenced to the TSP (3-(trimethylsilyl)propionic-2,2,3,3-d4 acid sodium salt) peak (^1H NMR 0.00 ppm). The NMR data were recorded at 300 K, with chemical shifts δ reported in parts per million and coupling constants J in Hertz. All data were analysed using MestReNova 12.0.0 (2017) software. The stability in 1% DMSO-d6/D2O was determined for all samples. […]
smiles,measurement,setting,value
O=C([O-])c1cccc(C(=O)[O-])n1.O=C([O-])c1cccc(C(=O)[O-])n1.[Ga+3].[OH-] [[Ga(Dpic)2(OH)]^2−],stability constant logβ-121,[1],11.08(4)
"N.N.[Cl][Pt][Cl] [cisPt, cisplatin]",IC50,"[2]; read-out: Cytotoxic activity IC50 A2058, MTS, 72 h of incubation",17.6 ± 1.2 µM
same,IC50,"[3]; read-out: Cytotoxic activity IC50 HCT116, MTS, 72 h of incubation",7.4 ± 0.8 µM
same,IC50,"[4]; read-out: Cytotoxic activity IC50 HeLa, MTS, 72 h of incubation",35.4 ± 3.4 µM
same,IC50,"[5]; read-out: Cytotoxic activity IC50 Jurkat, MTS, 72 h of incubation",6.3 ± 0.5 µM
same,IC50,"[6]; read-out: Cytotoxic activity IC50 MDA-MB-231, MTS, 72 h of incubation",7.1 ± 0.3 µM
same,IC50,"[7]; read-out: Cytotoxic activity IC50 PaTu 8902, MTS, 72 h of incubation",12.9 ± 0.9 µM
same,IC50,"[8]; read-out: Cytotoxic activity IC50 HDF, MTS, 72 h of incubation",40.1 ± 2.8 µM
"O.O.O.O.O.O.O=C([O-])c1cc(O)cc(C(=O)[O-])n1.O=C([O-])c1cc(O)cc(C(=O)[O-])n1.[Ga+3].[Ga+3].[OH-].[OH-] [GaChel, [Ga(Chel)(H2O)(OH)]2·4H2O]",IC50,"[9]; Bacteria, MHB, 37 °C, DMSO max 1.0 vol. %, read-out: IC50 E. coli",> 2000 µM
same,partial inhibition of E. coli growth,[9]; concentration not given,9%
same,IC50,"[10]; Bacteria, MHB, 37 °C, DMSO max 1.0 vol. %, read-out: IC50 P. aeruginosa",500 µM
same,MIC100 (MIC) P. aeruginosa,[10]; growth fully inhibited (100%),1000 µM
same,IC50,"[11]; Bacteria, MHB, 37 °C, DMSO max 1.0 vol. %, read-out: IC50 S. aureus",2000 µM
same,inhibition of S. aureus growth,[11]; complex at 2 mM,50%
same,IC50,[12],> 2000 µM
same,IC50,[13],> 2000 µM
same,IC50,[14],> 2000 µM
same,IC50,[15],> 2000 µM
same,IC50,[2],415 ± 4 µM
same,IC50,[3],406 ± 86.8 µM
same,IC50,[4],1410 ± 155 µM
same,IC50,[5],418 ± 100 µM
same,IC50,[6],199 ± 45.6 µM
same,IC50,[7],610 ± 54 µM
same,IC50,[8],347 ± 25.5 µM
same,stability in 1% DMSO-d6/D2O solution,[16],stable
O=C([O-])c1ccccn1.O=C([O-])c1ccccn1.O=C([O-])c1ccccn1.[Ga+3] [[Ga(Pic)3]],stability constant logβ031,[1],20.86(2)
CCN1CCN(C(=O)N[C@@H](C(=O)N[C@@H]2C(=O)N3[C@@H]2SC(C)(C)[C@@H]3C(=O)O)c2ccccc2)C(=O)C1=O [piperacillin],MIC,"[10]; Pseudomonas aeruginosa, CCM1959, positive control, read-out: MIC100 for P. aeruginosa",5.81 µM
